Where “and” joins values, the source holds several entries; their conditions need not be identical. Equal entries are not always repeated.
Legend:
PRKACA = PRKACA (Homo sapiens, UniProt P17612); experiment: biochemical; design: endogenous in cells; host or cells: K562 cell extract; species or system K562 (extract); replicate k of n = 2 (each experiment ID is one independent experiment; two experiment IDs per compound); conditions: read-out: KDapp
TBK1 = target: T1, TBK1 (Homo sapiens, UniProt Q9UHD2); experiment: biochemical; design: endogenous in cells; host or cells: K562 cell extract; species or system K562 (extract); replicate k of n = 2 (each experiment ID is one independent experiment; two experiment IDs per compound); conditions: read-out: KDapp
T1 sequence (Q9UHD2 1-729): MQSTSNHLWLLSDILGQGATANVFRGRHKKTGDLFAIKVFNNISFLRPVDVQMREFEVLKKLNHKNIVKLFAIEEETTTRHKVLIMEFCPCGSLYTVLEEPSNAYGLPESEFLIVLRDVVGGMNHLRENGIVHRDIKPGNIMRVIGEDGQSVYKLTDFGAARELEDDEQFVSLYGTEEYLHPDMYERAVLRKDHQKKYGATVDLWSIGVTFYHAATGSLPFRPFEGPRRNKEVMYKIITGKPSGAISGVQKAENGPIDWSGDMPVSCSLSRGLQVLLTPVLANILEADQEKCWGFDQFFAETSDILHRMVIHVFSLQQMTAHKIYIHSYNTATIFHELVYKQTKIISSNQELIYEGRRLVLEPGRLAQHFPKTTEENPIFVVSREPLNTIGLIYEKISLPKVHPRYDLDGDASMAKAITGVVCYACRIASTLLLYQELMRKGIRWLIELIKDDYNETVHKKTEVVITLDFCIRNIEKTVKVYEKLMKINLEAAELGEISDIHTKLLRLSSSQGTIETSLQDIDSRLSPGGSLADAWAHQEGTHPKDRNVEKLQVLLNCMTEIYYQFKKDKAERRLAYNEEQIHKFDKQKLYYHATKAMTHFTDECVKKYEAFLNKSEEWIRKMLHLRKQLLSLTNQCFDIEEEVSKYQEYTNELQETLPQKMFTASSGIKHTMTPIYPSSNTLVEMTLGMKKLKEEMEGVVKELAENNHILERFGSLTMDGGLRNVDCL

PIP4K2C = target: T2, PIP4K2C (Homo sapiens, UniProt Q8TBX8); experiment: biochemical; design: endogenous in cells; host or cells: K562 cell extract; species or system K562 (extract); replicate k of n = 2 (each experiment ID is one independent experiment; two experiment IDs per compound); conditions: read-out: KDapp
T2 sequence (Q8TBX8 1-421): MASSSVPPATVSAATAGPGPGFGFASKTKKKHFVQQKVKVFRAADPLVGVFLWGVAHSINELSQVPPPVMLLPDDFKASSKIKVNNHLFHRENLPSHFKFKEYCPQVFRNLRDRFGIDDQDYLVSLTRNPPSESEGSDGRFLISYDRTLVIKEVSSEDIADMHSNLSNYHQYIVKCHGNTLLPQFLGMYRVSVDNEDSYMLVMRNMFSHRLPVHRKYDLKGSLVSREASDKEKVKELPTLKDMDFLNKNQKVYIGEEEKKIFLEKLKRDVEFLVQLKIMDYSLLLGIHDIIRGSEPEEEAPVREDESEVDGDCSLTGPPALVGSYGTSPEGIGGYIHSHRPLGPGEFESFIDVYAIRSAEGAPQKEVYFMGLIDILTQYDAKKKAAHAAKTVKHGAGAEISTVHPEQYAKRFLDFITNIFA

IRAK4 = target: T3, IRAK4 (Homo sapiens, UniProt Q9NWZ3); experiment: biochemical; design: endogenous in cells; host or cells: K562 cell extract; species or system K562 (extract); replicate k of n = 2 (each experiment ID is one independent experiment; two experiment IDs per compound); conditions: read-out: KDapp
T3 sequence (Q9NWZ3 1-460): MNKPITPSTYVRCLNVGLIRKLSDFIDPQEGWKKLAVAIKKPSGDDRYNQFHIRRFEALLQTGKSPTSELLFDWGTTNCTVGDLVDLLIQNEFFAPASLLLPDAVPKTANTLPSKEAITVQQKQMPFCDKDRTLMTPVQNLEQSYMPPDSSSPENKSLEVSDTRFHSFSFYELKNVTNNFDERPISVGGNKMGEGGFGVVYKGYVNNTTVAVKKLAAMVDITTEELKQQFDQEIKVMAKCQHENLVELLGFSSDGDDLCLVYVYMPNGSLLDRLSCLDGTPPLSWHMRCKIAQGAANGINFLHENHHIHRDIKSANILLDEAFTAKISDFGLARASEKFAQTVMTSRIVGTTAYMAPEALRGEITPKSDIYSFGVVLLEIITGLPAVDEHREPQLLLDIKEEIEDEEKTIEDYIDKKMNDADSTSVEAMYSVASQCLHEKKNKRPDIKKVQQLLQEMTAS

DD2 = system: DD2; design: method as in F.J. Gamo et al., Nature 2010; conditions: downloaded from ChEMBL, ref F.J. Gamo et al., Nature 2010; cited from earlier work
MAPKAPK5 = target: T4, MAPKAPK5 (Homo sapiens, UniProt Q8IW41); experiment: biochemical; design: endogenous in cells; host or cells: K562 cell extract; species or system K562 (extract); replicate k of n = 2 (each experiment ID is one independent experiment; two experiment IDs per compound); conditions: read-out: KDapp
T4 sequence (Q8IW41 1-473): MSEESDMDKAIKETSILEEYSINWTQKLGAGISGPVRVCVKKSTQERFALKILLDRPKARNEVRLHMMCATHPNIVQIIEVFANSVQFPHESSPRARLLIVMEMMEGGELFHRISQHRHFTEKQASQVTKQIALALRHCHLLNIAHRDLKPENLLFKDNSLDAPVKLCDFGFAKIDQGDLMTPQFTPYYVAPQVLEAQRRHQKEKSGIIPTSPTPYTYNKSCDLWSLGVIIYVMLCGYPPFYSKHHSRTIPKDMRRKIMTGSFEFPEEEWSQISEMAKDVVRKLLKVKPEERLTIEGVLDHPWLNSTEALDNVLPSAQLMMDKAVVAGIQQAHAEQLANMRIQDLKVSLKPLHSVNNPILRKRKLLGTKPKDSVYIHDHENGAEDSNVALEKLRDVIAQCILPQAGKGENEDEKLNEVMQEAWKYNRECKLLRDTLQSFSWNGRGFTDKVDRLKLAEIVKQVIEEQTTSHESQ

TAOK1 = TAOK1 (Homo sapiens, UniProt Q7L7X3); experiment: biochemical; design: endogenous in cells; host or cells: K562 cell extract; species or system K562 (extract); replicate k of n = 2 (each experiment ID is one independent experiment; two experiment IDs per compound); conditions: read-out: KDapp
TAOK1, sequence (Q7L7X3 whole entry): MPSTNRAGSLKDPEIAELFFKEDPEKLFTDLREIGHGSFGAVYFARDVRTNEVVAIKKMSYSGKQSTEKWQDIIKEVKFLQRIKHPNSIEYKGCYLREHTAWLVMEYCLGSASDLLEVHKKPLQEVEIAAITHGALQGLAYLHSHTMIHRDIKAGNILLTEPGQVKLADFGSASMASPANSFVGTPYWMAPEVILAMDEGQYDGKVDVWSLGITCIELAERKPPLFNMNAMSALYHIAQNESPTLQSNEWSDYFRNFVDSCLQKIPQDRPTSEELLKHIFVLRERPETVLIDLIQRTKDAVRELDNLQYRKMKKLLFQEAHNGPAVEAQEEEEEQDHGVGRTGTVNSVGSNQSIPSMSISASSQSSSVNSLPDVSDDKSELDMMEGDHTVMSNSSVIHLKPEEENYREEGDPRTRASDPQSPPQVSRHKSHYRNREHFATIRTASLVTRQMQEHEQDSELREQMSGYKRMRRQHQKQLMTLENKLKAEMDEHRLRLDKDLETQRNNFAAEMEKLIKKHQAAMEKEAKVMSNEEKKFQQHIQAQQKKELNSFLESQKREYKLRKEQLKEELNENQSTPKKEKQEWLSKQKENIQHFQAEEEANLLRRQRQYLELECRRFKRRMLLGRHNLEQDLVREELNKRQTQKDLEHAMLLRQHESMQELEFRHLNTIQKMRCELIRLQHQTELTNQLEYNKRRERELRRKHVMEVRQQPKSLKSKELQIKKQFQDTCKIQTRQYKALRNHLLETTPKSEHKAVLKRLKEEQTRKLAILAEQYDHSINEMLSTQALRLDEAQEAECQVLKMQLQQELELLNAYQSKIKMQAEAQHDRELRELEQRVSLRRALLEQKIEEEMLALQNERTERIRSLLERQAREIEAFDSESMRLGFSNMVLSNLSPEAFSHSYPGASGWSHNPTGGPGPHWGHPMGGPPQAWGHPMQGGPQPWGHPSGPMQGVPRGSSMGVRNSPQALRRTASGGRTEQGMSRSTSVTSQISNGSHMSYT

Row | Compound | Kd (PRKACA) [nM] | Kd (TBK1) | Kd (PIP4K2C) | Kd (IRAK4) [nM] | PCT_INHB_DD2 (DD2) [%] | Kd (MAPKAPK5) [nM] | Kd (TAOK1) [nM]
1 | CN1CCN(c2ccc(Nc3ncc(C#N)c(Nc4ccccc4C(N)=O)n3)cc2)CC1.Cl [TCMDC-134116] | 1330 | 229 nM and 220 nM | 691 nM and 713 nM | 96.4 | 93 |  | 
2 | CN(C)CC(O)COc1ccc(Nc2ncc([N+](=O)[O-])c(Nc3ccccc3O)n2)cc1.O=C(O)C(F)(F)F (stereo not shown) [TCMDC-141399] |  |  |  |  |  | 292 | 4300

— PMC4774911, “Biochemical Screening of Five Protein Kinases from Plasmodium falciparum against 14,000 Cell-Active Compounds” (PLoS ONE, 2016)
